Data from PubChem BioAssay (NCI).
“And” between values parts separate entries of the source, which are not always exact repeats. Identical values can stand only once.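 Five concentrations, 48 hours, 96-well plates. Here, GI50 denotes the concentration required for 50% inhibition of growth. TGI: concentration producing complete growth inhibition.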

Legend:
Experiment in all cases: NCI anticancer screen, dose series, 48 h; in the data active means GI50 below about 0.43 µM; inactive means the rest
SNB-19 CNS = test system: SNB-19 CNS
OVCAR-3 ovarian = test system: OVCAR-3 ovarian
SNB-75 CNS = test system: SNB-75 CNS
HCC-2998 colon = test system: HCC-2998 colon
HT29 colon = test system: HT29 colon
SN12C renal = test system: SN12C renal
MOLT-4 leukemia = test system: MOLT-4 leukemia
SK-MEL-5 melanoma = test system: SK-MEL-5 melanoma
OVCAR-5 ovarian = test system: OVCAR-5 ovarian
NCI-H226 lung = test system: NCI-H226 lung

COc1nc2nccc-2c2occn12
> 100 µM: TGI (SNB-19 CNS) | TGI (OVCAR-3 ovarian) | TGI (SNB-75 CNS) | TGI (HCC-2998 colon) | TGI (HT29 colon) | TGI (SN12C renal) | TGI (MOLT-4 leukemia) | TGI (SK-MEL-5 melanoma) | TGI (OVCAR-5 ovarian)

COc1c(N2CCN(CN3C(=O)C(=Nc4ccc(S(=O)(=O)Nc5ncccn5)cc4)c4ccccc43)C(C)C2)c(F)cc2c(=O)c(C(=O)O)cn(C3CC3)c12 (stereo not drawn)
> 50 µM: TGI (OVCAR-3 ovarian) | TGI (SNB-75 CNS) | TGI (HT29 colon) | TGI (SN12C renal) | TGI (MOLT-4 leukemia) | TGI (NCI-H226 lung) | TGI (SK-MEL-5 melanoma) | TGI (OVCAR-5 ovarian)
inactive: GI50 (SNB-19 CNS) 6.51 µM | GI50 (OVCAR-3 ovarian) > 50 µM | GI50 (SNB-75 CNS) 7.71 µM | GI50 (HT29 colon) 22.3 µM | GI50 (SN12C renal) > 50 µM | GI50 (MOLT-4 leukemia) 17 µM | GI50 (NCI-H226 lung) 32.1 µM | GI50 (SK-MEL-5 melanoma) 20.2 µM | GI50 (OVCAR-5 ovarian) > 50 µM
31.3 µM: TGI (SNB-19 CNS)

CC(=O)c1cc([N+](=O)[O-])ccc1OCC(=O)O
> 100 µM: TGI (SNB-19 CNS) | TGI (OVCAR-3 ovarian) | TGI (SNB-75 CNS) | TGI (HCC-2998 colon) | TGI (HT29 colon) | TGI (SN12C renal) | TGI (MOLT-4 leukemia) | TGI (NCI-H226 lung) | TGI (SK-MEL-5 melanoma) | TGI (OVCAR-5 ovarian)

CN=S(=O)(c1ccccc1)c1ccccc1
> 100 µM: TGI (SNB-19 CNS) | TGI (OVCAR-3 ovarian) | TGI (SNB-75 CNS) | TGI (HCC-2998 colon) | TGI (HT29 colon) | TGI (SN12C renal) | TGI (MOLT-4 leukemia) | TGI (NCI-H226 lung) | TGI (SK-MEL-5 melanoma) | TGI (OVCAR-5 ovarian)

CC1C(=O)C(C)C(c2ccccc2)N(N=O)C1c1ccccc1 (stereo not drawn)
> 605 µM: TGI (SK-MEL-5 melanoma)
> 830 µM: TGI (SNB-19 CNS)
685 µM: TGI (OVCAR-3 ovarian)
64.7 µM and 80.6 µM: TGI (SNB-75 CNS)
> 1000 µM: TGI (HCC-2998 colon) | TGI (MOLT-4 leukemia)
981 µM: TGI (SN12C renal)
> 881 µM: TGI (OVCAR-5 ovarian)
> 833 µM: TGI (HT29 colon)
572 µM: TGI (NCI-H226 lung)
inactive: GI50 (SNB-19 CNS) 312 µM | GI50 (SNB-75 CNS) 27.2 µM | GI50 (HCC-2998 colon) > 1000 µM | GI50 (SN12C renal) > 65.2 µM | GI50 (NCI-H226 lung) 260 µM

O=NNc1nc(-c2cccnc2)nc2ccccc12
> 100 µM: TGI (SNB-19 CNS) | TGI (OVCAR-3 ovarian) | TGI (SNB-75 CNS) | TGI (HCC-2998 colon) | TGI (HT29 colon) | TGI (SN12C renal) | TGI (MOLT-4 leukemia) | TGI (NCI-H226 lung) | TGI (SK-MEL-5 melanoma) | TGI (OVCAR-5 ovarian)

Fc1cccc(COc2ccc(Nc3ncnc4cc(-c5ccc[nH]5)sc34)cc2Cl)c1
> 16.8 µM: TGI (NCI-H226 lung)
2.99 µM: TGI (OVCAR-3 ovarian)
> 25 µM: TGI (SNB-19 CNS) | TGI (SN12C renal) | TGI (MOLT-4 leukemia) | TGI (SK-MEL-5 melanoma)
active: GI50 (OVCAR-3 ovarian) 0.151 µM | GI50 (HCC-2998 colon) 0.246 µM
> 20.6 µM: TGI (HT29 colon)
inactive: GI50 (SNB-19 CNS) 2.22 µM | GI50 (SNB-75 CNS) 1.19 µM | GI50 (HT29 colon) 7.47 µM | GI50 (SN12C renal) 1.42 µM | GI50 (MOLT-4 leukemia) 2.59 µM | GI50 (NCI-H226 lung) 1.7 µM | GI50 (SK-MEL-5 melanoma) 6.01 µM | GI50 (OVCAR-5 ovarian) 2.22 µM
24.9 µM: TGI (OVCAR-5 ovarian)
19.2 µM: TGI (HCC-2998 colon)
6.35 µM: TGI (SNB-75 CNS)

Cc1cccc(C(C)C)c1NC(=O)C(=O)CC(=O)c1c(C)n([O-])c2ccccc2[n+]1=O
> 100 µM: TGI (SNB-19 CNS) | TGI (HCC-2998 colon) | TGI (HT29 colon) | TGI (NCI-H226 lung) | TGI (SK-MEL-5 melanoma) | TGI (OVCAR-5 ovarian)
71.1 µM: TGI (SNB-75 CNS)
22 µM: TGI (OVCAR-3 ovarian)
59.8 µM: TGI (MOLT-4 leukemia)
96.7 µM: TGI (SN12C renal)

COc1cc(-c2cn(-c3ccc(Cl)cc3)c(C)c2C(=O)C(F)(F)F)cc(OC)c1OC
inactive: GI50 (SNB-19 CNS) > 100 µM | GI50 (OVCAR-3 ovarian) > 100 µM | GI50 (SNB-75 CNS) 56.9 µM | GI50 (HCC-2998 colon) > 100 µM | GI50 (HT29 colon) 73.2 µM | GI50 (SN12C renal) 12.7 µM | GI50 (MOLT-4 leukemia) 6.01 µM | GI50 (NCI-H226 lung) > 100 µM | GI50 (SK-MEL-5 melanoma) 7.18 µM | GI50 (OVCAR-5 ovarian) > 100 µM
> 100 µM: TGI (SNB-19 CNS) | TGI (OVCAR-3 ovarian) | TGI (SNB-75 CNS) | TGI (HCC-2998 colon) | TGI (HT29 colon) | TGI (SN12C renal) | TGI (MOLT-4 leukemia) | TGI (NCI-H226 lung) | TGI (SK-MEL-5 melanoma) | TGI (OVCAR-5 ovarian)

CC(C)C1CC(O)O[C@@H]([C@@H](C)[C@H]2CC(=O)[C@@H]3[C@@H]4[C@@H](O)[C@H](O)[C@H]5[C@@H](O)[C@H](O)CC[C@]5(C)[C@H]4CC[C@]23C)C1 (stereo partly drawn)
> 100 µM: TGI (SNB-19 CNS) | TGI (OVCAR-3 ovarian) | TGI (HCC-2998 colon) | TGI (HT29 colon) | TGI (SN12C renal) | TGI (MOLT-4 leukemia) | TGI (NCI-H226 lung) | TGI (SK-MEL-5 melanoma)
54.3 µM: TGI (SNB-75 CNS)

N#CC(C(=O)C(=O)NCCCNC(=O)C(=O)C(C#N)c1ccccc1)c1ccccc1 (stereo not drawn)
> 100 µM: TGI (SNB-19 CNS) | TGI (OVCAR-3 ovarian) | TGI (SNB-75 CNS) | TGI (HCC-2998 colon) | TGI (HT29 colon) | TGI (SN12C renal) | TGI (MOLT-4 leukemia) | TGI (NCI-H226 lung) | TGI (SK-MEL-5 melanoma) | TGI (OVCAR-5 ovarian)

COc1ccc(-c2cncn2-c2ccc(OC)cc2)cc1
45.5 µM: TGI (OVCAR-3 ovarian)
inactive: GI50 (OVCAR-3 ovarian) 20 µM | GI50 (HCC-2998 colon) 16.7 µM | GI50 (SN12C renal) 18.1 µM | GI50 (NCI-H226 lung) 22.5 µM | GI50 (SK-MEL-5 melanoma) 17.9 µM | GI50 (OVCAR-5 ovarian) 25.2 µM
98.3 µM: TGI (NCI-H226 lung)
33.8 µM: TGI (SK-MEL-5 melanoma)
32.2 µM: TGI (HCC-2998 colon)
82.7 µM: TGI (OVCAR-5 ovarian)
48.3 µM: TGI (SN12C renal)

O=c1cc(-c2ccccc2)c2cc3c(=O)ccoc3cc2o1
> 100 µM: TGI (SNB-19 CNS) | TGI (OVCAR-3 ovarian) | TGI (HCC-2998 colon) | TGI (HT29 colon) | TGI (SN12C renal) | TGI (MOLT-4 leukemia) | TGI (NCI-H226 lung) | TGI (SK-MEL-5 melanoma)
90.3 µM: TGI (SNB-75 CNS)

CSc1nc2c(nc(N)n2C2OCC(O)C(O)C2O)c(=O)n1C (stereo not drawn)
> 100 µM: TGI (SNB-19 CNS) | TGI (OVCAR-3 ovarian) | TGI (SNB-75 CNS) | TGI (HCC-2998 colon) | TGI (HT29 colon) | TGI (SN12C renal) | TGI (MOLT-4 leukemia) | TGI (NCI-H226 lung) | TGI (SK-MEL-5 melanoma)

COc1cc(CNc2ccc(C(C)C)cc2)cc(OC)c1OC
inactive: GI50 (OVCAR-3 ovarian) 16.3 µM
27.9 µM: TGI (SK-MEL-5 melanoma)
33.4 µM: TGI (OVCAR-3 ovarian)
33.3 µM: TGI (HT29 colon)
73 µM: TGI (MOLT-4 leukemia)
99.1 µM: TGI (SNB-19 CNS)
70.5 µM: TGI (SNB-75 CNS)
69.9 µM: TGI (OVCAR-5 ovarian)
31.4 µM: TGI (SN12C renal)

CC1=C(O)C(=O)C2C(=O)C1C(C)C2c1ccc(Cl)cc1 (stereo not drawn)
> 100 µM: TGI (SNB-19 CNS) | TGI (OVCAR-3 ovarian) | TGI (SNB-75 CNS) | TGI (HCC-2998 colon) | TGI (HT29 colon) | TGI (MOLT-4 leukemia) | TGI (NCI-H226 lung) | TGI (SK-MEL-5 melanoma) | TGI (OVCAR-5 ovarian)

COc1cccc(C(=O)C2C(=O)N(C)CCc3ccccc32)c1OC (stereo not drawn)
> 100 µM: TGI (SNB-19 CNS) | TGI (OVCAR-3 ovarian) | TGI (SNB-75 CNS) | TGI (HT29 colon) | TGI (SN12C renal) | TGI (MOLT-4 leukemia) | TGI (NCI-H226 lung) | TGI (SK-MEL-5 melanoma)

CC/C=C\C/C=C\C/C=C\CCCCCCCC(=O)OCC
> 100 µM: TGI (OVCAR-3 ovarian) | TGI (SNB-75 CNS) | TGI (HCC-2998 colon) | TGI (HT29 colon) | TGI (SN12C renal) | TGI (MOLT-4 leukemia) | TGI (NCI-H226 lung) | TGI (SK-MEL-5 melanoma) | TGI (OVCAR-5 ovarian)

Cc1ccc(NC(=O)/C(=N\Nc2ccc([N+](=O)[O-])cc2[N+](=O)[O-])C2C(=O)NC(=O)NC2=O)cc1
> 100 µM: TGI (SNB-19 CNS) | TGI (OVCAR-3 ovarian) | TGI (SNB-75 CNS) | TGI (HT29 colon) | TGI (SN12C renal) | TGI (NCI-H226 lung) | TGI (SK-MEL-5 melanoma) | TGI (OVCAR-5 ovarian)

C=C(C)C(=O)O[C@H]1[C@H]2[C@H](OC(=O)[C@H]2C)[C@H](O)[C@@H](C)[C@@H]2C=CC(=O)[C@]21C
4.96 µM: TGI (SN12C renal)
54 µM: TGI (OVCAR-5 ovarian)
39 µM: TGI (NCI-H226 lung)
10.7 µM: TGI (HT29 colon)
7.52 µM: TGI (MOLT-4 leukemia)
20.2 µM: TGI (SK-MEL-5 melanoma)
5.72 µM: TGI (HCC-2998 colon)
18.6 µM: TGI (SNB-19 CNS)
18.4 µM: TGI (OVCAR-3 ovarian)
